Laboratory results taken from US10501433B2, “Kynurenine-3-monooxygenase inhibitors, pharmaceutical compositions, and methods of use thereof” (CHDI Foundation, Inc., priority 2013, dated 2019).

Target: T1, KMO mouse enzyme (Mus musculus, UniProt Q91WN4)
T1 construct: KMO enzyme prepared at Evotec from mouse liver (4-6 weeks old) via mitochondria isolation; from tissue; host or cells: mouse liver (4-6 weeks old), isolated mitochondria
Assay: KMO enzyme assay monitoring L-Kynurenine hydroxylation to 3OH-KYN by LC/MS (protocols substantially similar to Biology Example 3)
Format: biochemical
Conditions: compound at 30 μM; KMO enzyme from mouse liver mitochondria; 100 μM L-Kynurenine
Protocol: A method of monitoring L-Kynurenine (KYN) hydroxylation to form 3-Hydroxy-Kynurenine (3OH-KYN) by LC/MS is described. Product is quantified by multiple reaction monitoring (MRM method).
• Compound: Stock concentrations: 10 mM in 100% DMSO • Enzyme: KMO enzyme prepared at Evotec from mouse liver (4-6 weeks old) via mitochondria isolation as described in the literature • Substrate: L-Kynurenine (Sigma: Cat #K3750, stock concentration: 10 mM in 100 mM potassium phosphate buffer, pH 7.4) Assay Conditions: • Buffer: 100 mM potassium phosphate, pH 7.4, 200 μM NADPH, 0.4 U/ml G6P-DH (Glucose 6-phosphate Dehydrogenase), 3 mM G6P (D-Glucose 6-phosphate) • Assay Volume: 40 μl • Plate Format: 384 well plate, transparent (Matrix) • Read-Out: product (3OH-KYN) quantification using product specific MRM • Reader: LC/MS/MS Assay Protocol: • prepare serial dilution (factor 3) of compound in 100% DMSO (top concentration=10 mM, 100% DMSO) • [[…]: 10 mM; 3.33 mM; 1.11 mM; 0.37 mM; 0.12 mM; 0.04 mM; 0.0137 mM; 0.0045 mM, […]] • prepare 3.33-fold concentrated solution of each compound concentration (top concentration 300 μM, 3% DMSO) in assay buffer • [concentrations: 300 μM; 100 μM; 33.3 μM; 11.1 μM; 3.70 μM; 1.23 μM; 0.41 μM; 0.137 μM] • prepare substrate (10 mM) at concentration of 1 mM in assay buffer • assay mix: 4 μl compound/well of each concentration+24 μl assay buffer/well+8 μl KMO mouse enzyme+4 μl 1 mM substrate (final concentration=100 μM) • [final compound top concentration: 30 μM; 0.3% DMSO] • [final compound bottom concentration: 0.0137 μM; 0.3% DMSO] • positive control: 4 μl 50 μM FCE28833 in assay buffer, 0.5% DMSO [final assay concentration=5 μM]+24 μl assay buffer/well+8 μl KMO mouse enzyme+4 μl mM substrate [final concentration=100 μM] • negative control: 28 μl assay buffer/well+8 μl KMO mouse enzyme+4 μl 1 mM substrate • [final concentration=100 μM] • incubate 40 min at RT • add 40 μl/well 10% trichloro acetic acid in water to stop the assay and precipitate protein • centrifuge plate for 3 min at 4000 rpm • product detection by LC/MS (injection of 20 μl/well, 2 fold overfill of the 10 μl sample loop) Data Analysis:
IC50's are calculated using automated fitting algorithm (A+ Analysis).
Using the assay protocols substantially similar to those of Biology Example 3, the following compounds were tested.

T1 sequence (Q91WN4 whole entry): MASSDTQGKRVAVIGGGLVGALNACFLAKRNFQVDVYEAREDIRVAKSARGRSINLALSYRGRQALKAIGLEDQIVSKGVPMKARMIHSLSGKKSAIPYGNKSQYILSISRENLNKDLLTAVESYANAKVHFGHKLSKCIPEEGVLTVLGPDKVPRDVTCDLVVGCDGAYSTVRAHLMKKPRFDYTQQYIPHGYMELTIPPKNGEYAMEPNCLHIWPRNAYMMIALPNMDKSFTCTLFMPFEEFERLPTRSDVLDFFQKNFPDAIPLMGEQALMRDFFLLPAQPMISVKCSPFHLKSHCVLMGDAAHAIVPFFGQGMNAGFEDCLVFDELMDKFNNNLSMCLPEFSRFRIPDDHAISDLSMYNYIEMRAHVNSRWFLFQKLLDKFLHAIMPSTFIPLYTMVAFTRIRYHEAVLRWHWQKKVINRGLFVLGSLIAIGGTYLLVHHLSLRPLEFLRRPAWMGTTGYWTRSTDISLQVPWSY

| SMILES | inhibition at 30 µM [%] |
| --- | --- |
| O=C(O)[C@H]1C[C@@H]1C(=O)c1cc(Cl)c2c(c1)CCO2 [Example 1, Method 1, (1S, 2S)-2-(7-chloro-2,3-dihydro-1-benzofuran-5-carbonyl)cyclopropane-1-carboxylic acid] | 100 |
| O=C(O)[C@H]1C[C@@H]1C(=O)c1cc(Cl)c2c(c1)CCCO2 [Example 1, Method 2, (1S, 2S)-2-(8-Chloro-3,4-dihydro-2H-1-benzopyran-6-carbonyl)cyclopropane-1-carboxylic acid] | 100 |
| Cn1c(=O)oc2cc(C(=O)[C@H]3C[C@@H]3C(=O)O)cc(Cl)c21 [Example 1, Method 3, (1S,2S)-2-(4-Chloro-3-methyl-2-oxo-2,3-dihydro-1,3-benzoxazole-6-carbonyl)cyclopropane-1-carboxylic acid] | 93.5 |
| O=C(O)[C@H]1C[C@@H]1C(=O)c1ccc2c(c1)OCCO2 [Example 1, Method 4, (1S,2S)-2-(2,3-Dihydro-1,4-benzodioxine-6-carbonyl)cyclopropane-1-carboxylic acid] | 102 |
| CC1Cc2cc(C(=O)[C@H]3C[C@@H]3C(=O)O)ccc2O1 (stereo partly drawn) [Example 1, Method 5, (1S,2S)-2-(2-methyl-2,3-dihydro-1-benzofuran-5-carbonyl)cyclopropane-1-carboxylic acid] | 103 |
| CC1Cc2cc(C(=O)[C@H]3C[C@@H]3C(=O)O)cc(Cl)c2O1 (stereo partly drawn) [Example 1, Method 6, (1S,2S)-2-(7-chloro-2-methyl-2,3-dihydro-1-benzofuran-5-carbonyl)-cyclo-propane-1-carboxylic acid] | 100 |
| CC1COc2c(Cl)cc(C(=O)[C@H]3C[C@@H]3C(=O)O)cc2C1 (stereo partly drawn) [Example 1, Method 7, (1S,2S)-2-(8-Chloro-3-methyl-3,4-dihydro-2H-1-benzopyran-6-carbonyl)cyclo-propane-1-carboxylic acid] | 101 |
| O=C(O)[C@H]1C[C@@H]1C(=O)c1cc(Cl)c2c(c1)OCCO2 [Example 1, Method 8, (1S,2S)-2-(8-Chloro-2,3-dihydro-1,4-benzodioxine-6-carbonyl)cyclopropane-1-carboxylic acid] | 102 |
| O=C(O)[C@H]1C[C@@H]1C(=O)c1cc(Cl)c2c(c1)OCO2 [Example 1, Method 9, (1S,2S)-2-(7-Chloro-2H-1,3-benzodioxole-5-carbonyl)cyclopropane-1-carboxylic acid] | 102 |
| CC1Oc2cc(C(=O)[C@H]3C[C@@H]3C(=O)O)cc(Cl)c2O1 (stereo partly drawn) [Example 1, Method 10, (1S,2S)-2-(7-Chloro-2-methyl-2H-1,3-benzodioxole-5-carbonyl)cyclopropane-1-carboxylic acid] | 102 |
| O=C(O)[C@H]1C[C@@H]1C(=O)c1ccc2c(c1)CCO2 [Example 2, Method 1, (1S,2S)-2-(2,3-dihydro-1-benzofuran-5-carbonyl)cyclopropane-1-carboxylic acid] | 98.7 |
| Cn1c(=O)oc2c(Cl)cc(C(=O)[C@H]3C[C@@H]3C(=O)O)cc21 [Example 2, Method 3, (1S,2S)-2-(7-Chloro-3-methyl-2-oxo-2,3-dihydro-1,3-benzoxazole-5-carbonyl)cyclopropane-1-carboxylic acid] | 101 |
| O=C(O)[C@H]1C[C@@H]1C(=O)c1ccc2c(c1)CCCO2 [Example 2, Method 4, (1S,2S)-2-(3,4-dihydro-2H-1-benzopyran-6-carbonyl)cyclopropane-1-carboxylic acid] | 101 |
| CC1(C)Cc2cc(C(=O)[C@H]3C[C@@H]3C(=O)O)ccc2O1 [Example 2, Method 5, (1S,2S)-2-(2,2-Dimethyl-2,3-dihydro-1-benzofuran-5-carbonyl)cyclopropane-1-carboxylic acid] | 64.8 |
| O=C(O)[C@H]1C[C@@H]1C(=O)c1ccc2c(c1)SCCO2 [Example 3, Method 5, (1S,2S)-2-(2,3-dihydro-1,4-benzoxathiine-6-carbonyl)cyclopropane-1-carboxylic acid] | 101 |
| O=C(O)[C@H]1C[C@@H]1C(=O)c1ccc2c(c1)OCO2 [Example 4, Method 5, (1S,2S)-2-(2H-1,3-benzodioxole-5-carbonyl)cyclopropane-1-carboxylic acid] | 94.1 |
